The test system of the first experiment is plasma LPA. The experiment can be described thus: Assay C: In Vivo (plasma LPA reduction after oral dosing). The following applies: rats, oral 5 mg/kg, plasma 8 hours post application vs baseline; sum of LPA 16:0, 18:0, 18:1, 18:2, 20:4. Here is the method: The test substance was solubilized in 0.5% natrosol supplemented with 0.015% Tween 80 for oral application to rats at a dose of 5 mg/kg. Blood samples were collected before compound administration and 8 hours post application on ice using EDTA as coagulation agent. Subsequently, plasma was prepared by centrifugation and stored until analysis at −20° C.
LPAs from plasma samples were extracted by using the procedure described by Scherer et al. (Clinical chemistry 2009, 55, 1218-22). 35 μL of heparinized plasma was mixed with 200 μL 40 mM disodium hydrogen phosphate buffer containing 30 mM citric acid (pH 4) and 1 μM 17:0 LPA (internal standard). Subsequently, 500 μL butanol was added and shaken vigorously for 10 min. Samples were centrifuged afterwards at 4000 rpm, 4° C., for 10 min. 500 μL of the organic upper phase was transferred to a fresh 96-deep-well plate and evaporated with a gentle nitrogen flow of 15 psi for 45 min. The resultant residual was dissolved in 100 μL ethanol prior to LC-MS analysis.
A Triple Quad 6500 (ABSciex, Toronto, Canada) was equipped with an Agilent 1290 LC system (Agilent, Santa Clara, CA) a CTC autosampler and an Atlantis 50×2.1-mm, 3-μm HILIC LC column (Waters, Elstree, UK). Eluent A contained 0.2% formic acid and 50 mM ammonium formate in water, whereas eluent B consisted of 0.2% formic acid in acetonitrile. […] At 1.8 min, solvent B was set back to 95% and stayed constant for 0.7 min for re-equilibration of the column. The following LPA species were monitored (DP: declustering potential and CE: collision energy): 16:0 LPA at 409.2/152.8, DP=−150, CE=−28; 18:0 LPA at 437.3/152.8, DP=−60, CE=−28; 18:1 LPA at 435.2/152.8, DP=−40, CE=−28; 18:2 LPA at 433.2/152.8, DP=−150, CE=−28; 20:4 LPA at 457.2/152.8, DP=−100, CE=−29 and 17:0 LPA at 423.5/152.8, DP=−100, CE=−36. LPA depletion in percent was calculated based on the baseline LPA levels before test compound application. The sum of LPA refers to the species 16:0; 18:0; 18:1; 18:2 and 20:4
With `CC(=O)N1CCN(c2ccc(CNc3ccc(OCc4ccc(C(F)(F)F)nc4)nn3)cc2)CC1` [Example 2.2], the “LPA reduction at 8 h” value is reported as 94.1%.

With `CC(=O)N1CC2(C1)CN(c1ccc(CNc3ccc(OCc4ccc(C(F)F)nc4)nn3)cc1)C2` [Example 1.2], the “LPA reduction at 8 h” value was found to be 96.7%.

In the case of `CC(=O)N1CC2(C1)CN(c1ccc(CNc3ccc(OCc4ccc(C(F)(F)F)nc4)nn3)cc1)C2` [Example 1.1, 1-(6-(4-(((6-((6-(trifluoromethyl)pyridin-3-yl)methoxy)pyridazin-3-yl)amino)methyl)phenyl)-2,6-diazaspiro[3.3]heptan-2-yl)ethan-1-one], the “LPA reduction at 8 h” value came out at 96.5%.

Regarding `O=C(NC[C@@H]1[C@H]2CN(C(=O)OCc3cc(C(F)(F)F)cc(C(F)(F)F)c3)C[C@@H]12)c1ccc2[nH]nnc2c1` [reference compound], the “LPA reduction at 8 h” value was determined as 40.7%.

Take `CC(=O)N1CCN(c2ccc(CNc3ccc(OCc4ccc(C(F)(F)F)nc4)nn3)cn2)CC1` [Example 2.5]: the “LPA reduction at 8 h” value worked out at 95.9%.

Consider `CCc1nc2c(C)cc(N3CCN(CC(=O)N4CC(O)C4)CC3)cn2c1N(C)c1nc(-c2ccc(F)cc2)c(C#N)s1` [Example 2 in WO2014/139882, reference compound], for which the “LPA reduction at 8 h” value came to 58.1%.

As to `CC(=O)N1CCN(c2ccc(CNc3ccc(OCc4cnc(C(F)F)c(F)c4)nn3)cc2)CC1` [Example 2.12], the “LPA reduction at 8 h” value is listed as 94.6%.

Regarding `CC(=O)N1CCN(c2ccc(CNc3ccc(OCc4ccc(C(F)F)nc4)nn3)cc2)CC1` [Example 3, 1-[4-(4-{[(6-{[6-(Difluoromethyl)pyridin-3-yl]methoxy}pyridazin-3-yl)amino]methyl}-phenyl)piperazin-1-yl]ethan-1-one], the “LPA reduction at 8 h” value amounted to 99.9%.

The next experiment deals with Human ATX (Homo sapiens (Human), UniProt Q13822). Put plainly: Assay A: Biochemical ATX Assay. Particulars: 5 nM recombinant ATX, 18:1 LPC substrate, 2 h at room temperature, formation of 18:1 LPA by RapidFire MS.
Method: 5 nM recombinant ATX (Cayman Chemicals) was supplemented to 50 mM Tris buffer (pH 8.0) containing 3 mM KCl, 1 mM CaCl2, 1 mM MgCl2 0.14 mM NaCl, and 0.1% bovine serum albumin. Test compounds were dissolved in DMSO and tested in the range of 0.1 nM to 10 μM. The enzymatic reaction (22.5 μL) was started by addition of 2.5 μL 10 μM 18:1 LPC (Avanti Lipids, Alabaster, AL, USA). After 2-h incubation at room temperature, the reaction was stopped by addition of 20 μL water containing 500 nM 20:4 LPA as internal standard and 100 μL 1-butanol for extracting LPA. Subsequently, the plates were centrifuged at 4000 rpm, 4° C., for 2 min. The resultant upper butanol phase was directly used for injection at a RapidFire system (Agilent).
The RapidFire autosampler was coupled to a binary pump (Agilent 1290) and a Triple Quad 6500 (ABSciex, Toronto, Canada). […] 1 The MS was operated in negative mode with a source temperature of 550° C., curtain gas=35, gas 1=65, and gas 2=80. The following transitions and MS parameters (DP: declustering potential and CE: collision energy) for the respective LPAs were determined: • 18:1 LPA at 435.2/152.8, DP=−40, CE=−28 and 20:4 LPA at 457.2/152.8, DP=−100, CE=−27).
The formation of 18:1 LPA was monitored and evaluated as ratio to 20:4 LPA.
Broadly, the IC50 is the concentration at which inhibition is half-maximal. Regarding `CC(=O)N1CC2CCC1CN2c1ccc(CNc2ccc(OCc3ccc(C(F)(F)F)nc3)nn2)cc1` (centres unmarked) [Example 2.20], the IC50 is 2.9 nM.

For the molecule `CC(=O)N1CCN(c2ccc(CNc3ccc(OCc4ccc(C(F)F)nc4)nn3)c(F)c2)CC1` [Example 1.4], the 50% inhibitory concentration (IC50) came to 3.3 nM.

Consider `CC(=O)N1CCC2(CC1)CN(c1ccc(CNc3ccc(OCc4ccc(C(F)F)nc4)nn3)cc1)C2` [Example 1.6], for which the IC50 came out at 6.5 nM.

Consider `CN1CC2(CC1=O)CN(c1ccc(CNc3ccc(OCc4ccc(C(F)F)nc4)nn3)cc1)C2` [Example 1.5], for which the IC50 is 3.9 nM.

With `CC(=O)N1C[C@@H]2CN(c3ccc(CNc4ccc(OCc5ccc(C(F)(F)F)nc5)nn4)cc3)C[C@@H]2C1` [Example 2.13], the IC50 came out at 4 nM.

For the molecule `CC(=O)N1CCN(c2ccc(CNc3ccc(OCc4ccc(C(F)(F)F)nc4)nn3)cc2)CC1` [Example 2.2], the IC50 turned out to be 3 nM.

Consider `CC(=O)N1C[C@@H]2CN(c3ccc(CNc4ccc(OCc5ccc(C(F)F)nc5)nn4)cc3)C[C@@H]2C1` [Example 2.14], for which the 50% inhibitory concentration (IC50) turned out to be 4.4 nM.

Turning to `CC(=O)N1CC2(C1)CN(c1ccc(CNc3ccc(OCc4ccc(C(F)F)nc4)nn3)cc1)C2` [Example 1.2], the half-inhibitory concentration (IC50) is 2.9 nM.

On to `CC(=O)N1CCN(c2ccc(CNc3ccc(OCc4ccc(C(F)F)nc4)nn3)nc2)CC1` [Example 2.4], for which the IC50 came out at 1.9 nM.

Turning to `CC(=O)N1CCC2(CC1)CN(c1ccc(CNc3ccc(OCc4ccc(C(F)(F)F)nc4)nn3)cn1)C2` [Example 2.17], the IC50 is 5.2 nM.

Consider `CC(=O)N1CCN(c2ccc(CNc3ccc(OCc4ccc(C(F)F)nc4)nn3)c(C(F)(F)F)c2)CC1` [Example 2.7], for which the IC50 turned out to be 1.9 nM.

For `CC(=O)N1CC[C@@H]2CN(c3ccc(CNc4ccc(OCc5ccc(C(F)(F)F)nc5)nn4)cc3)C[C@@H]2CC1` [Example 4, 1-[(3aR,8aS)-2-(4-{[(6-{[6-(trifluoromethyl)pyridin-3-yl]methoxy}pyridazin-3-yl)amino]methyl}phenyl)-decahydropyrrolo[3,4-d]azepin-6-yl]ethan-1-one], the IC50 is 8.6 nM.

For the molecule `CC(=O)N1CCN(c2ccc(CNc3ccc(OCc4ccc(C(F)F)nc4)nn3)cn2)CC1` [Example 2.3], the IC50 amounted to 2.2 nM.

For `CC(=O)N1CC2CC1CN2c1ccc(CNc2ccc(OCc3ccc(C(F)(F)F)nc3)nn2)cc1` (centres unmarked) [Example 2.23], the IC50 worked out at 3.9 nM.

For `FC(F)c1ccc(COc2ccc(NCc3ccc(N4CCN(C5COC5)CC4)cc3)nn2)cn1` [Example 2.10], the IC50 stood at 1.8 nM.

As for `CC(=O)N1CC2(C1)CN(c1ccc(CNc3ccc(OCc4ccc(C(F)(F)F)nc4)nn3)cc1)C2` [Example 1.1, 1-(6-(4-(((6-((6-(trifluoromethyl)pyridin-3-yl)methoxy)pyridazin-3-yl)amino)methyl)phenyl)-2,6-diazaspiro[3.3]heptan-2-yl)ethan-1-one], the IC50 turned out to be 3.4 nM.

`CC(=O)N1CCN(c2ccc(CNc3ccc(OCc4ccc(C(F)(F)F)nc4)nn3)nc2)CC1` [Example 2.15]: the IC50 stood at 2.2 nM.

Regarding `CC(=O)N1CCN(c2ccc(CNc3ccc(OCc4ccc(C(F)F)nc4)nn3)cc2)CC1(C)C` [Example 1.7], the IC50 amounted to 1.6 nM.

In the case of `CC(=O)N1CC2CC1CN2c1ccc(CNc2ccc(OCc3ccc(C(F)F)nc3)nn2)cc1` (centres unmarked) [Example 2.6], the IC50 stood at 1.8 nM.

In the case of `CC(=O)N1CCN(c2ccc(CNc3ccc(OCc4ccc(C(F)(F)F)nc4)nn3)cn2)CC1` [Example 2.5], the IC50 was 2.5 nM.

Take `CC(=O)N1CCN(c2ccc(CNc3ccc(OCc4ccc(C(F)F)nc4)nn3)cc2F)CC1` [Example 1.3]: the IC50 came out at 1.5 nM.

As for `CC(=O)N1CCC2(CC1)CN(c1ccc(CNc3ccc(OCc4ccc(C(F)(F)F)nc4)nn3)cc1)C2` [Example 2.22], the IC50 was 6.2 nM.

Take `CC(=O)N1C[C@@H]2[C@H](C1)[C@H]1CN(c3ccc(CNc4ccc(OCc5ccc(C(F)(F)F)nc5)nn4)cc3)C[C@@H]21` [Example 5, 1-((3aR,3bS,6aR,6bS)-5-(4-(((6-((6-(trifluoromethyl)pyridin-3-yl)methoxy)pyridazin-3-yl)amino)methyl)phenyl)octahydrocyclobuta[1,2-c:3,4-c′]dipyrrol-2(1H)-yl)ethan-1-one]: the IC50 amounted to 7 nM.

Turning to `CC(=O)N1CC2CCC(C1)N2c1ccc(CNc2ccc(OCc3ccc(C(F)(F)F)nc3)nn2)cc1` [Example 2.19], the IC50 worked out at 2.4 nM.

As to `CC(=O)N1CCC2(CC1)CN(c1ccc(CNc3ccc(OCc4ccc(C(F)F)nc4)nn3)nc1)C2` [Example 2.16], the IC50 is 10.4 nM.

For `CC(=O)N(C)C1CCN(c2ccc(CNc3ccc(OCc4ccc(C(F)(F)F)nc4)nn3)cc2)CC1` [Example 2.1, N-methyl-N-[1-(4-{[(6-{[6-(trifluoromethyl)pyridin-3-yl]methoxy}pyridazin-3-yl)amino]methyl}phenyl)piperidin-4-yl]acetamide], the IC50 amounted to 2.3 nM.

In the case of `FC(F)(F)c1ccc(COc2ccc(NCc3ccc(N4CCN(C5COC5)CC4)cc3)nn2)cn1` [Example 2.8], the IC50 stood at 2 nM.

Turning to `CC(=O)N1CCN(c2ccc(CNc3ccc(OCc4cnc(C(F)F)c(F)c4)nn3)cc2)CC1` [Example 2.12], the half-inhibitory concentration (IC50) came to 3.5 nM.

Regarding `CC(=O)N1CCN(c2ccc(CNc3ccc(OCc4ccc(C(F)F)nc4)nn3)cc2)CC1` [Example 3, 1-[4-(4-{[(6-{[6-(Difluoromethyl)pyridin-3-yl]methoxy}pyridazin-3-yl)amino]methyl}-phenyl)piperazin-1-yl]ethan-1-one], the IC50 worked out at 2.9 nM.

In the case of `CC(=O)N1CC2(C1)CN(c1ccc(CNc3ccc(OCc4ccc(C(F)(F)F)nc4)nn3)c(F)c1)C2` [Example 2.21], the IC50 came out at 2.4 nM.

Take `CC(=O)N1CC2(C1)CN(c1ccc(CNc3ccc(OCc4ccc(C(F)(F)F)nc4)nn3)cc1F)C2` [Example 2.9]: the IC50 was 3.7 nM.

For `CC(=O)N1CCC2(CC1)CN(c1ccc(CNc3ccc(OCc4ccc(C(F)F)nc4)nn3)cn1)C2` [Example 2.18], the IC50 was 9.2 nM.

For `CC(=O)N[C@H]1[C@@H]2CN(c3ccc(CNc4ccc(OCc5ccc(C(F)(F)F)nc5)nn4)cc3)C[C@@H]21` [Example 2.11], the IC50 came out at 3.8 nM.
